We go through two molecules from patent US10314816B2, “Antimicrobial compounds, compositions and methods of use thereof” (Wisconsin Alumni Research Foundation, priority 2012, dated 2019).

The test system of one assay is B. subtilis cells. The assay is described as follows: Measurement of ΔΨ using DiOC2, flow cytometry. Type of assay: cell-based, Bacillus subtilis. The following applies: 20 minutes of treatment, p<0.001. On the procedure: Fluorescence microscopy and flow cytometry to measure ΔΨ. The fluorescent probe, 3,3′-diethyloxacarbocyanine iodide (DiOC2) was used to measure ΔΨ in DMSO and in compound-treated cells. To eliminate the possibility of an interaction between the probe and compounds, the fluorescence intensity of solutions of DiOC2 was measured in the presence and absence of the compounds as described in the art. To measure ΔΨ in B. subtilis cells, flow cytometry was used. Cell suspensions were labeled with 30 μM DiOC2 and filtered through a Nylon filter containing 60-μm diameter pores. The fluorescence of these cells was measured using a BD LSR II flow cytometer. The following instrument settings were used for detection: low flow rate, 488 nm excitation laser, 530/30 nm emission filter for green fluorescence, and 575/26 nm emission filter for red fluorescence. […] First, a gate was drawn around the region where cells were detected in the forward versus side scatter area plot. Gating enabled the exclusion of any non-cellular materials in the sample that the instrument detected. The ratio of red-to-green fluorescence was calculated for each particle within the gate using the software, and the resulting data was exported to GraphPad Prism to create box plots shown in FIG. 5. Statistical parameters were calculated using the Kruskal-Wallis non-parametric one-way analysis of variation (GraphPad InStat). […]
A general note: Flow cytometry measures light scatter and fluorescence of single cells or particles in a stream.

Assay [1] relates to C. crescentus CB15N. Description: Minimum stationary-bactericidal concentration (MSC). The assay is classed as cell-based, Caulobacter crescentus. The note with it: for MSC: C. crescentus CB15N, stationary cells, 24 hours. On the procedure: Determination of the Minimum Stationary-Bactericidal Concentration.
Cultures of C. crescentus (24 hour incubation) and S. aureus cells (5 day incubation) were grown from single colonies. Cells were collected by centrifugation (8500 rpm for 2.5 minutes) and re-suspended in M2 salt solution (for C. crescentus; 1.74 g/L Na2HPO4, 1.06 g/L KH2PO4, and 0.5 g/L NH4Cl) or phosphate-buffered saline (for S. aureus; PBS, Fisher Scientific). The centrifugation and re-suspension was repeated two more times. After the repeated washing steps, the cell suspension was diluted 10-fold to achieve approximately 10^8 cells/mL. Aliquots of the diluted cell suspension were transferred into wells of a 96-well plate (100 μL/well), and 2-fold serial dilutions were performed to test a range of antibiotic concentrations. The plate was sealed with Parafilm® and incubated for 24 hours at room temperature in the dark. After incubation, 50 μl was removed from each well to spread on nutrient agar plates (1.5% agar in PYE for C. crescentus, and LB for S. aureus). The colonies on each plate were counted after growing the cells for 1-2 days. For determining the kinetics of bactericidal activity of DCAP on stationary cultures, the washed cells were diluted by 100-fold in appropriate solutions and tested using a single concentration of the compound while including a DMSO control sample. Cell suspensions were kept in closed microcentrifuge tubes instead of the wells of 96-well plates. 100 μL of the suspensions was removed for plating at each time point. All MSC experiments were performed in static conditions.
In addition to its activity against actively growing bacteria, DCAP kills cells in stationary phase (Table 3). This property was tested against C. crescentus and S. aureus. […] To ensure that bacteria were deprived of nutrients, the cells were grown into late stationary phase (i.e., 24 hours for C. crescentus and 5 days for S. aureus). These cells were collected, suspended in isotonic solutions devoid of amino acids or sugars, and treated with a small molecule (DMSO, DCAP, CCCP or ampicillin). Cell viability was measured over time by plating culture aliquots on non-selective, solid growth media. The minimum concentration of antibiotic required to completely eliminate colony formation was designated as the minimum stationary-bactericidal concentration (MSC). […] CCCP inhibited the proliferation of C. crescentus cells regardless of their physiological status. However, the MSC of CCCP for S. aureus was >300-fold higher than the MIC. This dramatic decrease in the effectiveness of CCCP in S. aureus may be due to changes in membrane composition as cells adjust their metabolism in nutrient-deprived conditions.

Assay [2] relates to C. crescentus CB15N. The assay is described as follows: Minimum biofilm inhibitory concentration (bMIC). The assay is classed as cell-based, Caulobacter crescentus. On the procedure:
Determination of the minimum biofilm inhibitory concentration of growth (bMIC) and biofilm eradication concentration (MBEC). Overnight cultures of C. crescentus and S. aureus were grown and diluted 100-fold into appropriate nutrient media. Aliquots of the diluted suspension were transferred into wells of 96-well plates (150 μL/well). 2-fold serial dilutions were performed for compound-containing wells. For every experiment, three replicates for each compound concentration tested were included. After transferring aliquots of the suspension, the plates were closed with specialized lids that have protruding pins (Nunc STP System), and the plates were sealed using Parafilm®. The plates were incubated in a static incubator at 30° C. (C. crescentus) or 37° C. (S. aureus) for 24 hours. After the cells had formed biofilms on the surface of the pins, the pins were rinsed by dipping them in M2 (C. crescentus) or PBS (S. aureus) solutions. To rinse the pins, clean, sterile 96-well plates were used (aliquots of 200 μL/well); each rinse lasted 10 sec. After washing away planktonic cells loosely bound to biofilms, the pins were inserted into a 96-well plate that was pre-aliquoted with nutrient media containing antibiotics (2-fold dilutions, a final volume of 150 μL/well). The plates were sealed with Parafilm®, and incubated for 17 hours, and the bMIC was measured at the end of the incubation by visual inspection. […] The plates were sealed with Parafilm®, incubated for 24 hours, and the MBEC was measured at the end of the incubation by visual inspection.
Membrane-active compounds are also efficient at eradicating biofilm-associated cells (Table 2). […] To determine the efficacy of antibiotics against biofilms, the minimum biofilm inhibitory concentration (bMIC) and the minimum biofilm eradication concentration (MBEC) were measured. […] After 24 hours of exposure to compounds, the lowest concentration of antibiotic that inhibited planktonic cell growth in the wells (bMIC) was determined.

As to `N#CC(C#N)=NNc1cccc(Cl)c1` [CCCP, carbonyl cyanide m-chlorophenyl hydrazone], the “ΔΨ (λ576/λ530 of DiOC2)” value in the assay on B. subtilis cells is “significant decrease in λ576/λ530”. The molecule further had an MSC in the assay on C. crescentus CB15N [1] of 2.5 µM. This molecule yielded a bMIC in the assay with C. crescentus CB15N [2] of 5 µM.
`OCC(CO)(CO)NCC(O)Cn1c2ccc(Cl)cc2c2cc(Cl)ccc21` (stereo not shown) [DCAP, 2-((3-(3,6-dichloro-9H-carbazol-9-yl)-2-hydroxypropyl)amino)-2-(hydroxymethyl)propane-1,3-diol]: the “ΔΨ (λ576/λ530 of DiOC2)” value in the assay with B. subtilis cells is “significant decrease in λ576/λ530”. Further, in the assay on C. crescentus CB15N [1] (C. crescentus), the “Minimum time required to obtain the MSC” value was found to be 2 h. In the assay on C. crescentus CB15N [1], this molecule displayed an MSC of 20 µM. The bMIC with C. crescentus CB15N [2] was found to be 20 µM.
